The values below come from ChEMBL document CHEMBL1127133, “Substituted 6-alkyloxapenems: potent -lactamase inhibitors: synthesis and biological characterization” (Bioorg Med Chem Lett, 1993).

A short description of the data set: T1/2 (phosphate buffer pH 7.0 @ 28 degree C). Format: ADME.
What is called half-life is the time needed for the level to fall by half in the phase considered. High values mean slow decline, low ones rapid decline. Take `O=C([O-])[C@H]1/C(=C/CO)O[C@@H]2CC(=O)N21.[K+]` [CLAVULANATE POTASSIUM]: the half-life was 60 h.

For `CC(C)(C)C1=C(C(=O)[O-])N2C(=O)[C@H]([C@H](O)CCc3ccc(O)cc3)[C@H]2O1.[Na+]`, the half-life was 24.6 h.

The compound `CC(C)(C)C1=C(C(=O)[O-])N2C(=O)[C@H]([C@@H](O)c3ccc(O)cc3)[C@H]2O1.[Na+]` gave a half-life of 10.3 h.

`C[C@H](F)[C@H]1C(=O)N2C(C(=O)[O-])=C(C(C)(C)C)O[C@H]12.[Na+]` had a half-life of 7.2 h. Turning to `CC(C)(C)C1=C(C(=O)[O-])N2C(=O)[C@H](CNC(=O)[C@H](N)c3ccccc3)[C@H]2O1.[Na+]`, the half-life was 2.2 h. In turn, `CC(C)(C)C1=C(C(=O)[O-])N2C(=O)[C@H](CNS(=O)(=O)Cc3ccccc3)[C@H]2O1.[Na+]` showed a half-life of 8.9 h. With `CC(C)(C)C1=C(C(=O)[O-])N2C(=O)[C@H]([C@@H](O)c3ccncc3)[C@H]2O1.[Na+]` the figure was 6 h; with `CC(C)(C)C1=C(C(=O)[O-])N2C(=O)[C@H]([C@@H](O)c3ccccc3)[C@H]2O1.[Na+]`, 8.9 h. In turn, `COC(=O)[C@@H](O)[C@H]1C(=O)N2C(C(=O)[O-])=C(C(C)(C)C)O[C@H]12.[Na+]` showed a half-life of 6.2 h. `CC(C)(C)C1=C(C(=O)[O-])N2C(=O)[C@H]([C@H](O)CCc3ccncc3)[C@@H]2O1.[Na+]`: the half-life was 7.1 h. In turn, `C[C@@H](O)[C@H]1C(=O)N2C(C(=O)[O-])=C(C(C)(C)C)O[C@H]12.[Na+]` had a half-life of 8.1 h.

Compound `C[C@@H](O)[C@H]1C(=O)N2C(C(=O)[O-])=C(C(C)(C)C)O[C@@H]12.[Na+]` showed a half-life of 6.4 h. `CC(C)(C)C1=C(C(=O)[O-])N2C(=O)[C@H](CNC(=O)Cc3ccccc3)[C@H]2O1.[Na+]` showed a half-life of 5.5 h. The compound `CC(C)(C)C1=C(C(=O)[O-])N2C(=O)[C@H]([C@H](O)CCc3ccccc3)[C@H]2O1.[Na+]` showed a half-life of 21 h. The compound `CC(C)(C)C1=C(C(=O)[O-])N2C(=O)[C@H](CN)[C@H]2O1.[Na+]` had a half-life of 1.2 h.

Take `Cn1cc([C@H](O)[C@H]2C(=O)N3C(C(=O)[O-])=C(C(C)(C)C)O[C@H]23)nn1.[Na+]`: the half-life is 7 h. `CC(C)(C)C1=C(C(=O)[O-])N2C(=O)[C@H]([C@H](O)c3ccccc3)[C@H]2O1.[Na+]` gave a half-life of 7 h. With `CC(C)(C)C1=C(C(=O)[O-])N2C(=O)[C@H]([C@H](O)c3ccncc3)[C@H]2O1.[Na+]` the figure was 6.4 h; with `CC(C)(C)C1=C(C(=O)[O-])N2C(=O)[C@H]([C@@H](O)CCc3ccc(O)cc3)[C@H]2O1.[Na+]`, 21.2 h; with `CC(C)(C)C1=C(C(=O)[O-])N2C(=O)[C@H](CNC(=O)COc3ccccc3)[C@H]2O1.[Na+]`, 5.7 h.

With `CC(C)(C)C1=C(C(=O)[O-])N2C(=O)[C@H](CNC(=O)CNC(=O)Cc3ccccc3)[C@H]2O1.[Na+]`, the half-life is 6.6 h. The figure for `C[C@@H](F)[C@H]1C(=O)N2C(C(=O)[O-])=C(C(C)(C)C)O[C@H]12.[Na+]` is 3.5 h. The compound `CC(C)(C)C1=C(C(=O)[O-])N2C(=O)[C@H]([C@@H](O)CCc3ccc(O)cc3)[C@@H]2O1.[Na+]` had a half-life of 11.8 h.

In turn, `Cn1cc([C@@H](O)[C@H]2C(=O)N3C(C(=O)[O-])=C(C(C)(C)C)O[C@H]23)nn1.[Na+]` had a half-life of 6.8 h. As to `CC(C)(C)C1=C(C(=O)[O-])N2C(=O)[C@H]([C@H](O)CCc3ccncc3)[C@H]2O1.[Na+]`, the half-life was 13.7 h. Consider `CC(C)(C)C1=C(C(=O)[O-])N2C(=O)[C@H]([C@@H](O)CCc3ccncc3)[C@H]2O1.[Na+]`, for which the half-life is 15.8 h. `CC(C)(C)C1=C(C(=O)[O-])N2C(=O)[C@H](CO)[C@H]2O1.[Na+]` had a half-life of 5 h. As for `COC(=O)[C@H](O)[C@H]1C(=O)N2C(C(=O)[O-])=C(C(C)(C)C)O[C@H]12.[Na+]`, the half-life is 6.7 h.

The compound `CC(C)(C)C1=C(C(=O)[O-])N2C(=O)[C@H](CNS(C)(=O)=O)[C@H]2O1.[Na+]` gave a half-life of 2.2 h.

As for `C[C@H](O)[C@H]1C(=O)N2C(C(=O)[O-])=C(C(C)(C)C)O[C@H]12.[Na+]`, the half-life is 7.1 h. In the case of `CC(C)(C)C1=C(C(=O)[O-])N2C(=O)[C@H]([C@@H](O)CCc3ccccc3)[C@H]2O1.[Na+]`, the half-life was 39 h.

Regarding `CC(=O)NC[C@H]1C(=O)N2C(C(=O)[O-])=C(C(C)(C)C)O[C@H]12.[Na+]`, the half-life was < 3 h. Consider `CC(C)(C)OC(=O)[C@H](O)[C@H]1C(=O)N2C(C(=O)[O-])=C(C(C)(C)C)O[C@H]12.[Na+]`, for which the half-life is 10.7 h. `CC(C)(C)C1=C(C(=O)[O-])N2C(=O)[C@H](CNC(=O)CCNC(=O)Cc3ccccc3)[C@H]2O1.[Na+]` gave a half-life of 5.5 h.

For `CC(C)(C)C1=C(C(=O)[O-])N2C(=O)[C@H](CO)[C@@H]2O1.[Na+]`, the half-life is 2.4 h. `CC(C)(C)C1=C(C(=O)[O-])N2C(=O)[C@H](CNC(=O)COC(=O)Cc3ccccc3)[C@H]2O1.[Na+]` gave a half-life of 9.3 h. Turning to `CC(C)(C)C1=C(C(=O)[O-])N2C(=O)[C@H]([C@H](O)c3ccccc3)[C@@H]2O1.[Na+]`, the half-life is 0.5 h.

Regarding `CC(C)(C)C1=C(C(=O)[O-])N2C(=O)[C@H]([C@@H](O)c3ccccc3)[C@@H]2O1.[Na+]`, the half-life is 2.2 h.
